The target of one test is T1, human PCSK9 (Homo sapiens, UniProt Q8NBP7).
T1 construct: biotinylated human PCSK9 (31-692)-Avi-His6; His6 (C)
Briefly: Assay 2 - Biophysical human PCSK9 assay (SPR, Biacore). Conditions: geometric mean; SPR at 30° C; read-out: Assay 2 (PCSK9 BIAcore DBA CR) GMean Kd. The format is binding. The method, then: Assay 2—Biophysical Human PCSK9 Assay
The SPR binding experiments were performed on a Biacore S200 optical biosensor unit at 30° C. A Series S Sensor Chip SA that is designed to bind biotinylated molecules for interaction analysis in Biacore systems was equilibrated at room temperature prior to use. The running buffer for protein tethering and subsequent ligand binding experiments was 10 mM HEPES pH 7.4, 150 mM NaCl, 0.05% (v/v) Tween 20 pH 7.4.
For the surface tethering of PCSK9, biotinylated human PCSK9 (31-692)-Avi-His6 at a concentration of 0.5 mg/mL was used. Prior to the surface tethering, the surface was exposed to a solution of 50 mM NaOH, 500 mM NaCl via 3 consecutive injections of this solution with a contact time of 60 s and a flowrate of 10 μL min^−1 to remove non-conjugated streptavidin. The PCSK9 protein was diluted to a concentration of 20 μg/mL using running buffer and injected with a contact time of 180-300 s and a flowrate of 10 μL min^−1 over a single flow channel (typically flow channel 2 or flow channel 4) with the aim to achieve protein capture levels of >5000 response units (RU). Remaining biotin binding sites were blocked via 2 consecutive injections of a 10 μM D-biotin solution in running buffer with a contact time of 60 s and a flowrate of 10 μL min^−1 over all flow-channels. Flow-channels 1 and 3 typically served as a reference surface throughout the subsequent binding experiments.
The binding experiments were all performed at a flow rate of 30 PL min^−1 and by employing the method of single-cycle kinetics. This approach involves the sequential injection of a compound concentration series without regeneration steps. A contact time between 90-150 s was selected, which was followed by a 40 min dissociation phase to allow for a proper estimation of the dissociation rate constant. Test compounds were delivered in DMSO at a concentration of 10 mM and a digital dispenser HP D300 was used to set up the compound concentration series using 6 concentrations. The tested concentrations have been 30, 100, 300, 1000, 3000 and 10000 nM. Prior to injecting any compound, the surfaces were equilibrated by injecting running buffer over them in three separate pulses. The data collection rate was set to 10 Hz.
The raw sensorgrams of the compound injections were first subjected to reference subtraction (subtracting the signal from flow channel 1 and/or 3 from the signal from channels 2 and/or 4 respectively) and then blank subtraction (subtracting the signal from injecting DMSO controls from the reference subtracted data). The resulting double-referenced sensorgrams were then fitted using a 1:1 binding interaction model using the manufactures software package to extract kinetic- and affinity data. Active compounds have been defined by creating a detectable binding signal at the highest compound concentration ([…]) of 3 RUs. Kinetic- and affinity data on active compounds are only provided for those compounds where the binding signal at the highest compound concentration ([…]) is 50% of the theoretical maximum binding signal for a 1:1 binding interaction (Rmax, typically between 15-20 RUs) in order to enable a proper fitting of the data.
(In general: SPR reads the build-up and loss of mass on a sensor chip optically.)

Test [1] addresses T2, potassium ion channel hERG (human Ether-á-go-go-Related Gene) (Homo sapiens, UniProt Q12809).
T2 construct: expressed in transfected cells; host or cells: Chinese hamster ovary K1 (CHO)
Kind of test: Assay 5 - hERG assay (SyncroPatch 384PE patch clamp, CHO cells). The format is cell-based. Conditions: geometric mean; CHO cells over-expressing hERG; read-out: Assay 5 (hERG Hu CHO IF EPh CR-Syncro) GMean IC50. In short, it runs like this:
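Automated high-throughput patch clamp on CHO-K1 cells overexpressing hERG at room temperature, KF/KCl internal with escin, NMDG-containing external at pH 7.4. Six-point cumulative compound addition, 0.33% DMSO final; wells kept only with seal >30 MΩ, Z′ >0.4 and current >0.2 nA.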
On the technique in general: The hERG channel carries a current that helps repolarise heart muscle cells.

The next test deals with PCSK9 (Homo sapiens, UniProt Q8NBP7, G670E/V474I). Kind of test: biochemical.
Test [2] addresses GSK3β (Glycogen synthase kinase-3 beta) (Homo sapiens, UniProt P49841). Briefly: Assay 6 - GSK3β assay (ThermoFisher Z-Lyte). The format is biochemical. Conditions: geometric mean; ATP Conc: 10 μM; read-out: Assay 6 (GSK3β FRET-Z-Lyte CR) GMean IC50 (μM) ATP Conc: 10. Summed up: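 Z-Lyte fluorescence kinase assay with 0.22-0.92 ng GSK3β and 2 μM Ser/Thr 09 peptide in 50 mM HEPES pH 7.5, 10 mM MgCl2, 1 mM EGTA, 0.01% BRIJ-35. Kinase reaction 60 min at room temperature, then 60 min development. 10-point 3-fold titration from 10 μM in 1% DMSO, fitted to a sigmoidal dose-response curve.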

SMILES strings stand for the structures.

Chain of GSK3β (Glycogen synthase kinase-3 beta) (P49841 whole entry): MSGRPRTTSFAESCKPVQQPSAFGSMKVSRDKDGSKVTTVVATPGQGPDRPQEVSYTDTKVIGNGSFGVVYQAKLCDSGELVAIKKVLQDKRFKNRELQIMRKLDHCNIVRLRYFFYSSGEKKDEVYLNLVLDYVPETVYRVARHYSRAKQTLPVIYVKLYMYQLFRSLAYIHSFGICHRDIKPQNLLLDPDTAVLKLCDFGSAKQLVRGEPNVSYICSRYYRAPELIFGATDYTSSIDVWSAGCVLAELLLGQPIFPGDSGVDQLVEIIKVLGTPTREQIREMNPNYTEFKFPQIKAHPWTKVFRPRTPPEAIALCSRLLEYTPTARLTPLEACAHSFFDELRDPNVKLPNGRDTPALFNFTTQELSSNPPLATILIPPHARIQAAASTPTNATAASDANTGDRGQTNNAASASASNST
Chain of PCSK9 (Q8NBP7 with tags, fused parts or gaps V474I/G670E): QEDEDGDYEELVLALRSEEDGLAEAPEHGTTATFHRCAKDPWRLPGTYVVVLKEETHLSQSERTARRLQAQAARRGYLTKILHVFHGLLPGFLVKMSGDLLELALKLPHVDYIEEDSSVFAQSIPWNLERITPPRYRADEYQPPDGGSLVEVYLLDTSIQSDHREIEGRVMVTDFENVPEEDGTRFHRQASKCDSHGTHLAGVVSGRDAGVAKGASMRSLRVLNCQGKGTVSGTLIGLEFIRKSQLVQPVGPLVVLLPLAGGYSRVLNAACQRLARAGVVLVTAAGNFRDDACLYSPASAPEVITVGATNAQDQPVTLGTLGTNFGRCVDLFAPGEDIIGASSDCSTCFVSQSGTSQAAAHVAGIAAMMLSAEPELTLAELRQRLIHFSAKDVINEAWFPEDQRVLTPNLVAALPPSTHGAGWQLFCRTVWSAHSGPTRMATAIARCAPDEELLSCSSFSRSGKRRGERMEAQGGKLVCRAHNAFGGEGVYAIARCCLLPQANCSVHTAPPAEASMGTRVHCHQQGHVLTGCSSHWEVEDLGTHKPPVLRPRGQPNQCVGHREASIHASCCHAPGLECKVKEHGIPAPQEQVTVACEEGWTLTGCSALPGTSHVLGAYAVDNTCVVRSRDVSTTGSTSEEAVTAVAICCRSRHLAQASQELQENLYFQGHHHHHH
T1 sequence (Q8NBP7 31-692): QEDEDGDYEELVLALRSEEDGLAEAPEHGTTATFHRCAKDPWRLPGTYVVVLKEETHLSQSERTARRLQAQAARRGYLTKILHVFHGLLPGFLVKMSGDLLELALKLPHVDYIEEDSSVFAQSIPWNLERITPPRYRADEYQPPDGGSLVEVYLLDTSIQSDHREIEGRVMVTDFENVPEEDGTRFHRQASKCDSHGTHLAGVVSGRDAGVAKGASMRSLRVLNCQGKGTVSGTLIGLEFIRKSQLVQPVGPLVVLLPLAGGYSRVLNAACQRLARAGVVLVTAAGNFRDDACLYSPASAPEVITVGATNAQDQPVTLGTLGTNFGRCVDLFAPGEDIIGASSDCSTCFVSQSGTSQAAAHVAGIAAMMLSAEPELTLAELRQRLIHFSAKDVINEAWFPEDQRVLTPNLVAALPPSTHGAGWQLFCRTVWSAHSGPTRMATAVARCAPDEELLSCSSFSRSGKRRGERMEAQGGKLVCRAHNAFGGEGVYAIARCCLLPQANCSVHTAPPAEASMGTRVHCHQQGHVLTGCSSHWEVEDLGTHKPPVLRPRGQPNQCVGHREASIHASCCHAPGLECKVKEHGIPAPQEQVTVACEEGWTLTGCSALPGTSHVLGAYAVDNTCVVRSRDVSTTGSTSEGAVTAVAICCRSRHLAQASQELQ
T2 sequence (Q12809 whole entry): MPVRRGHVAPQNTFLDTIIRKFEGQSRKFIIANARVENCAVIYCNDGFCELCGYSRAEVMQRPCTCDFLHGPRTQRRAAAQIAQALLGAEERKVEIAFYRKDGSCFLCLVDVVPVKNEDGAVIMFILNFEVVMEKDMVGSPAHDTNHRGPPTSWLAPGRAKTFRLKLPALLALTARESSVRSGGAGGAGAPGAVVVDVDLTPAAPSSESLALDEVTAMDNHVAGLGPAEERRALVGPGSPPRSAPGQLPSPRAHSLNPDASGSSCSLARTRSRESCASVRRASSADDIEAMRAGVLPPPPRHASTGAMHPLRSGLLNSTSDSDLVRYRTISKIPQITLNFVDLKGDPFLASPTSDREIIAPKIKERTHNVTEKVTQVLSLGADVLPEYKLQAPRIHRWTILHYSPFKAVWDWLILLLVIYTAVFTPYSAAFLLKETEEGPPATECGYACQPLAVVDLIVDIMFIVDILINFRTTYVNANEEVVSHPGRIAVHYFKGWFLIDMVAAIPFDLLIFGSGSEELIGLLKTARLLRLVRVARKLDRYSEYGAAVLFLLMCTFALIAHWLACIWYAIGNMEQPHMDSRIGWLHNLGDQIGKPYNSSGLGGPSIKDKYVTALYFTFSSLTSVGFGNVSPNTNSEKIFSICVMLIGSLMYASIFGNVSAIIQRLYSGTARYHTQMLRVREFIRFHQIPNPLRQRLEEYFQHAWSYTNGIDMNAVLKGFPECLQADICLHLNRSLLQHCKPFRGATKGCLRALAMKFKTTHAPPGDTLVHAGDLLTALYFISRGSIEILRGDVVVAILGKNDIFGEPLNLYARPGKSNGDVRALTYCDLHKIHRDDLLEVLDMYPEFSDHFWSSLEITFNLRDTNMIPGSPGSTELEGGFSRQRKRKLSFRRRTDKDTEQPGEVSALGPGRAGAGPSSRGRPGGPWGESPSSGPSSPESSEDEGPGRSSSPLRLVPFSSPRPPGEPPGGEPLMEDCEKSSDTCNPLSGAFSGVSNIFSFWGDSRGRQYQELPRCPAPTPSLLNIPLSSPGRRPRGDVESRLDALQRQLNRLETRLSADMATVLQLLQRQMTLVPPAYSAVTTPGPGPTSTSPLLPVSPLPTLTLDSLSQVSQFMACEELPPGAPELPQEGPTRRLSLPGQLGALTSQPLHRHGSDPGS

In general, Kd refers to the free concentration of one partner at which half of the binding sites on the other are occupied at equilibrium, for simple one-to-one binding. Usually IC50 stands for the concentration at which inhibition is half-maximal. On to `Cc1nc(N[C@H]2CC[C@H](Nc3ccc(-n4ccccc4=O)cn3)C2)cnc1C#N` [Example 1, 3-Methyl-5-(((1S,3S)-3-((2-oxo-2H-[1,3′-bipyridin]-6′-yl)amino)cyclopentyl)amino)pyrazine-2-carbonitrile], for which the Kd on human PCSK9 is 1700 nM. For the same molecule, the values for the IC50 (in test [1]; at PCSK9) were more than 40100 nM and 2750 nM, respectively.

Regarding `Cc1ncc(N[C@H]2CC[C@H](Nc3ccc(-n4ccccc4=O)cn3)C2)nc1C` [Example 2, 6′-(((1S,3S)-3-((5,6-Dimethylpyrazin-2-yl)amino)cyclopentyl)amino)-2H-[1,3′-bipyridin]-2-one], the Kd on human PCSK9 amounted to 64 nM. The results for the IC50 (in test [1]; in test [2]; against PCSK9) were more than 40000 nM, more than 10 µM and 112 nM, respectively.

As for `O=c1ccccn1-c1ccc(N[C@H]2CC[C@H](Nc3cnc(Cl)cn3)C2)nc1` [Example 3, 6′-(((1S,3S)-3-((5-Chloropyrazin-2-yl)amino)cyclopentyl)amino)-2H-[1,3′-bipyridin]-2-one], the Kd at human PCSK9 worked out at 39 nM. For the same molecule, the IC50 in test [1] is 24600 nM; in test [2], more than 10 µM; against PCSK9, 40 nM.

`Cc1cnc(N[C@H]2CC[C@H](Nc3ccc(-n4ccccc4=O)cn3)C2)cn1` [Example 4, 6′-(((1S,3S)-3-((5-Methylpyrazin-2-yl)amino)cyclopentyl)amino)-2H-[1,3′-bipyridin]-2-one]: the dissociation constant (Kd) at human PCSK9 was 81 nM. Moreover, the concentration for half-maximal inhibition (IC50) in test [1] was more than 40000 nM; in test [2], more than 10 µM; on PCSK9, 104 nM.

As for `N#Cc1cnc(N[C@H]2CC[C@H](Nc3ccc(-n4ccccc4=O)cn3)C2)cn1` [Example 5, 5-(((1S,3S)-3-((2-Oxo-2H-[1,3′-bipyridin]-6′-yl)amino)cyclopentyl)amino)pyrazine-2-carbonitrile], the Kd on human PCSK9 came out at 412 nM. In addition, the concentration for half-maximal inhibition (IC50) in test [1] stood at 18500 nM; in test [2] it was 0.713 µM; at PCSK9 it was 499 nM.

`CC(=O)c1cnc(N[C@H]2CC[C@H](Nc3ccc(-n4ccccc4=O)cn3)C2)cn1` [Example 6, 6′-(((1S,3S)-3-((5-Acetylpyrazin-2-yl)amino)cyclopentyl)amino)-2H-[1,3′-bipyridin]-2-one]: at human PCSK9, the Kd was 863 nM. Also, the 50% inhibitory concentration (IC50) in test [1] was more than 40100 nM; at PCSK9, 1160 nM.

In the case of `Cc1ncc(N[C@H]2CC[C@H](Nc3ccc(-n4cccc(C)c4=O)cn3)C2)nc1C` [Example 18, 6′-(((1S,3S)-3-((5,6-Dimethylpyrazin-2-yl)amino)cyclopentyl)amino)-3-methyl-2H-[1,3′-bipyridin]-2-one], the Kd on human PCSK9 stood at 14 nM. The IC50 is more than 40000 nM in test [1], more than 10 µM in test [2] and 17 nM at PCSK9.

In the case of `Cc1ncc(N[C@H]2CC[C@H](Nc3ccc(N4C(=O)CN(C)C4=O)cn3)C2)nc1C` [Example 22, 3-(6-(((1S,3S)-3-((5,6-Dimethylpyrazin-2-yl)amino)cyclopentyl)amino)pyridin-3-yl)-1-methylimidazolidine-2,4-dione], on human PCSK9, the Kd was determined as 93 nM. The figures for the IC50 (in test [1]; in test [2]; on PCSK9) were more than 40000 nM, more than 10 µM and 107 nM, respectively.

`Cc1cnc(N[C@H]2CC[C@H](Nc3ccc(N4CC(=O)N(C)C4=O)cn3)C2)cn1` [Example 39, 3-Methyl-1-(6-(((1S,3S)-3-((5-methylpyrazin-2-yl)amino)cyclopentyl)amino)pyridin-3-yl)imidazolidine-2,4-dione]: the equilibrium dissociation constant (Kd) at human PCSK9 was found to be 33 nM. In addition, the values for the concentration for half-maximal inhibition (IC50) (in test [1]; in test [2]; against PCSK9) were more than 40000 nM, more than 10 µM and 34 nM, respectively.

In the case of `O=C(O)[C@@H]1CCC(=O)N1c1ccc(N[C@H]2CC[C@H](Nc3cnc(OC(F)F)cn3)C2)nc1` [Example 79, (S)-1-(6-(((1S,3S)-3-((5-(Difluoromethoxy)pyrazin-2-yl)amino)cyclopentyl)amino)pyridin-3-yl)-5-oxopyrrolidine-2-carboxylic acid], the Kd on human PCSK9 turned out to be 422 nM. Besides, the IC50 was more than 40000 nM in test [1], more than 10 µM in test [2] and 827 nM on PCSK9.

Regarding `CN1CCN(c2ccc(=O)n(-c3ccc(N[C@H]4CC[C@H](Nc5cnc(OC(F)F)cn5)C4)nc3)c2)CC1` [Example 81, 6′-(((1S,3S)-3-((5-(Difluoromethoxy)pyrazin-2-yl)amino)cyclopentyl)amino)-5-(4-methylpiperazin-1-yl)-2H-[1,3′-bipyridin]-2-one], the equilibrium dissociation constant (Kd) on human PCSK9 was determined as 66 nM. The 50% inhibitory concentration (IC50) in test [1] is more than 40000 nM; in test [2], 0.498 µM; at PCSK9, 202 nM.

Consider `O=c1ccccn1-c1ccc(N[C@H]2CC[C@H](Nc3cnc(OC(F)F)cn3)C2)nc1` [Example 86, 6′-(((1S,3S)-3-((5-(Difluoromethoxy)pyrazin-2-yl)amino)cyclopentyl)amino)-2H-[1,3′-bipyridin]-2-one], for which the dissociation constant (Kd) at human PCSK9 is 64 nM. Also, the IC50 in test [1] is 13400 nM; in test [2] it was more than 10 µM; against PCSK9, 73 nM.

Regarding `CN1C(=O)CN(c2ccc(N[C@H]3CC[C@H](Nc4cnc(OC(F)F)cn4)C3)nc2)C1=O` [Example 92, 1-(6-(((1S,3S)-3-((5-(Difluoromethoxy)pyrazin-2-yl)amino)cyclopentyl)amino)pyridin-3-yl)-3-methylimidazolidine-2,4-dione], the dissociation constant (Kd) on human PCSK9 was 52 nM. For the same molecule, the 50% inhibitory concentration (IC50) in test [1] was 4400 nM; in test [2] it was more than 10 µM; against PCSK9, 59 nM.

For `CN1CC(=O)N(c2ccc(N[C@H]3CC[C@H](Nc4cnc(Cl)cn4)C3)nc2)C1=O` [Example 100, 3-(6-(((1S,3S)-3-((5-Chloropyrazin-2-yl)amino)cyclopentyl)amino)pyridin-3-yl)-1-methylimidazolidine-2,4-dione], the Kd on human PCSK9 came to 45 nM. Besides, the IC50 in test [1] was more than 40100 nM; in test [2], more than 10 µM; against PCSK9, 28 nM.

In the case of `Cc1nc(N[C@H]2CC[C@H](Nc3ccc(-n4ccccc4=O)cn3)C2)cnc1Cl` [Example 102, 6′-(((1S,3S)-3-((5-Chloro-6-methylpyrazin-2-yl)amino)cyclopentyl)amino)-2H-[1,3′-bipyridin]-2-one], the Kd at human PCSK9 amounted to 122 nM. The values for the concentration for half-maximal inhibition (IC50) (in test [1]; in test [2]; on PCSK9) were 17700 nM, more than 10 µM and 85 nM, respectively.

In the case of `O=c1ccccn1-c1ccc(N[C@H]2CC[C@H](Nc3cnc(OC(F)(F)F)cn3)C2)nc1` [Example 111, 6′-(((1S,3S)-3-((5-(Trifluoromethoxy)pyrazin-2-yl)amino)cyclopentyl)amino)-2H-[1,3′-bipyridin]-2-one], the equilibrium dissociation constant (Kd) on human PCSK9 was 128 nM. In addition, the IC50 in test [1] was 20800 nM; in test [2], more than 10 µM; at PCSK9, 149 nM.

On to `COc1cnc(N[C@H]2CC[C@H](Nc3ccc(-n4ccccc4=O)cn3)C2)cn1` [Example 140, 6′-(((1S,3S)-3-((5-Methoxypyrazin-2-yl)amino)cyclopentyl)amino)-2H-[1,3′-bipyridin]-2-one], for which, on human PCSK9, the Kd was 81 nM. The IC50 is more than 40000 nM in test [1] and 309 nM against PCSK9.

(Values after US20240217951A1, “PCSK9 INHIBITORS AND METHODS OF USE THEREOF” (AstraZeneca AB, priority 2022, published 2024).)
